Assays:
[1] = system: isolated guinea pig right ventricular papillary muscle; experiment: Ex-vivo functional refractory period in isolated guinea pig papillary muscle; settings: conc 10^−5 mol/l
Excerpt: (§1) The compounds were checked for their effect on the force of contraction, stimulation threshold and for the Functional Refractory Period (FRP) in isolated rat left atria (Rat LA). Rat left atria functionally express the Kv4.3 ion channel, producing the Ito current of the action potential. […] The guinea pig action potential is dominated by hERG like ion channels for the refractory currents. Consequently, activity of hERG channels in vivo should be seen in GP papillary muscle preparations.
Method: Rat LA (Same Method Applies to GP Pap. Muscle)
Left atria were mounted vertically in a two-chambered organ bath containing 100 ml of buffer solution (in mM: NaH2PO4 0.6, MgSO4 0.6, KCl 4.7, NaHCO3 25, glucose 4.5, NaCl 120, CaCl2 2.4). The solution was saturated with and circulated by a gas mixture containing 95% O2 and 5% CO2. The temperature was kept constant at 30° C. […] The isometric force of the preparations was measured by force transducers, connected to amplifiers, documented by a pen recorder and fed into a computer for evaluation. Force of contraction (FC), threshold stimulus (TS) and the functional refractory period (FRP) were measured at baseline (pre), 20 min after addition of compound, and after washout at the end of the experiment. Threshold stimulus, representing excitability of the tissue, was assessed by varying the voltage applied for electrical stimulation. […]

isolated rat left atria = experiment: Ex-vivo functional refractory period in isolated rat left atria; settings: conc 10^−5 mol/l
Excerpt: as §1
Left atria were mounted vertically in a two-chambered organ bath containing 100 ml of buffer solution (in mM: NaH2PO4 0.6, MgSO4 0.6, KCl 4.7, NaHCO3 25, glucose 4.5, NaCl 120, CaCl2 2.4). […] The isometric force of the preparations was measured by force transducers, connected to amplifiers, documented by a pen recorder and fed into a computer for evaluation. Force of contraction (FC), threshold stimulus (TS) and the functional refractory period (FRP) were measured at baseline (pre), 20 min after addition of compound, and after washout at the end of the experiment. Threshold stimulus, representing excitability of the tissue, was assessed by varying the voltage applied for electrical stimulation. […] The functional refractory period, representing the time needed for repolarization, was assessed by applying extra stimuli at varying time intervals from the preceding regular pacing stimulus. […]

hERG potassium channel = hERG potassium channel (Homo sapiens, UniProt Q12809)
Excerpt: For this experiment HEK 293 T-REx HERG cells (#23) were used. This cell line made by IonGate is characterized by the inducible expression of the hERG gene. The T-REx™ System (Invitrogen, Karlsruhe, Germany) is a tetracycline-regulated mammalian expression system that uses regulatory elements from the E. coli Tn10-encoded tetracycline (Tet) resistance operon. In the absence of Tet the expression is repressed. Tetracycline regulation in the T-REx™ System is based on the binding of tetracycline to the Tet repressor and derepression of the promoter controlling expression of the hERG gene. Addition of Tet to the cell culture media results in expression of the hERG potassium channel.
To construct the HEK 293 T-REx HERG cell line, the hERG gene was ligated into the inducible expression vector pcDNA4/TO (→pc4TO-HERG) and transfected into HEK 293 T-REx cells (this cell line stably expresses the Tet repressor and was purchased at Invitrogen). Stable cell clones were isolated after selection with Blasticidin (5 μg/ml) and Zeocin™ (300 μg/ml). The clones were electrophysiological characterized after induction with 1 μg/ml Tet.
Experiments were performed using the patch clamp set-up. Technical equipment needed for manipulation of the cells was placed on a vibration-isolated table and shielded with a Faraday cage to minimize electrical noise. The amplifier and control system were placed in a rack outside the Faraday cage. The system consisted of an EPC9 or EPC10 patch clamp amplifier (HEKA, Lambrecht, Germany), and the perfusion system DADVC8 (ALA Scientific, New York, USA) controlled by the Pulse software package (HEKA, Lambrecht, Germany) installed on a personal computer.
The cells used for this experiment were kept in continuous culture under standard conditions (37° C., air supplemented with 5% CO2). The HEK 293 T-REx HERG cells were kept in minimal essential medium (MEM) supplemented with 100 U/ml Penicillin, 100 μg/ml Streptomycin, 10% fetal calf serum (FCS), 1% non-essential amino acids (NEAA), 2.5 μg/ml amphotericin, 300 μg/ml Zeocin™ and 5 μg/ml Blasticidin. Cells were passed every 3-4 days after detachment using a Trypsin solution. The quality of the cultured cells was guaranteed by vitality and contamination tests.
At least 18 hours prior to electrophysiological experiments the cells were detached by application of iced PBS (phosphate buffered saline) or Trypsin and replated on cover slips. 1 μg/ml Tet was added to the cells to induce hERG expression.
Activity of the cardiac hERG channel was investigated using the patch clamp technique in its whole cell mode. This means that the current needed for clamping the whole cell expressing the K^+-channel protein to a specific potential was measured. The pipettes used for patch clamping were made of borosilicate glass. Measurements were performed at room temperature (20-25° C.). In each experiment (i.e. each cell) only one concentration of the compound was investigated—no cumulative dosages were performed. Each cell acted as its own control. The effect of the compounds on hERG mediated currents was investigated at one concentration (10 μM) with two replicates each (c=1, n=2).
Between voltage pulses the cell was clamped to a holding potential of −80 mV (inside).
(b) and (c) were used to characterize the properties of the hERG channel and to check the quality of the individual patch clamp experiment (voltage control). Each test protocol consisted of 6 segments.

[2] = system: conscious telemetric mice; experiment: Telemetric ECG in conscious mice, consecutive i.p. dosing; format: in vivo, mice (NRMI)
Procedure: Male mice (NRMI) were anesthetized with a gas mixture of isoflurane, nitrous oxide and oxigen. Leads connected to a telemetry transmitter (TA10EA-F20, DSI, St. Paul, USA) were fixed by suture in the xiphoid and ventral neck region. The telemetry transmitter was placed under the skin on the back. Wounds were closed in layers and the animals were allowed to recover for at least 1 week.
On the day of the experiment the animals receive consecutive doses of vehicle i.p. at 60 min dosing intervals. ECG tracings (12 s duration) was recorded using the Data Sciences A.R.T. system. After completion of the experiment ECGs were analyzed automatically by Data Sciences ECG software (DSI, St. Paul, USA). QT and QRS intervals were measured manually in the stored ECGs. QTc was calculated from the QT interval and the corresponding heart rate using Bazett's formula. Heart rate was taken from the online analysis, given by the DSI Labpro and DSI A.R.T. systems (DSI, St. Paul, USA). Finally, ECG intervals were transferred to an Excel spreadsheet, checked for plausibility, and converted into 15 min averages.

Chain of hERG potassium channel (Q12809 whole entry): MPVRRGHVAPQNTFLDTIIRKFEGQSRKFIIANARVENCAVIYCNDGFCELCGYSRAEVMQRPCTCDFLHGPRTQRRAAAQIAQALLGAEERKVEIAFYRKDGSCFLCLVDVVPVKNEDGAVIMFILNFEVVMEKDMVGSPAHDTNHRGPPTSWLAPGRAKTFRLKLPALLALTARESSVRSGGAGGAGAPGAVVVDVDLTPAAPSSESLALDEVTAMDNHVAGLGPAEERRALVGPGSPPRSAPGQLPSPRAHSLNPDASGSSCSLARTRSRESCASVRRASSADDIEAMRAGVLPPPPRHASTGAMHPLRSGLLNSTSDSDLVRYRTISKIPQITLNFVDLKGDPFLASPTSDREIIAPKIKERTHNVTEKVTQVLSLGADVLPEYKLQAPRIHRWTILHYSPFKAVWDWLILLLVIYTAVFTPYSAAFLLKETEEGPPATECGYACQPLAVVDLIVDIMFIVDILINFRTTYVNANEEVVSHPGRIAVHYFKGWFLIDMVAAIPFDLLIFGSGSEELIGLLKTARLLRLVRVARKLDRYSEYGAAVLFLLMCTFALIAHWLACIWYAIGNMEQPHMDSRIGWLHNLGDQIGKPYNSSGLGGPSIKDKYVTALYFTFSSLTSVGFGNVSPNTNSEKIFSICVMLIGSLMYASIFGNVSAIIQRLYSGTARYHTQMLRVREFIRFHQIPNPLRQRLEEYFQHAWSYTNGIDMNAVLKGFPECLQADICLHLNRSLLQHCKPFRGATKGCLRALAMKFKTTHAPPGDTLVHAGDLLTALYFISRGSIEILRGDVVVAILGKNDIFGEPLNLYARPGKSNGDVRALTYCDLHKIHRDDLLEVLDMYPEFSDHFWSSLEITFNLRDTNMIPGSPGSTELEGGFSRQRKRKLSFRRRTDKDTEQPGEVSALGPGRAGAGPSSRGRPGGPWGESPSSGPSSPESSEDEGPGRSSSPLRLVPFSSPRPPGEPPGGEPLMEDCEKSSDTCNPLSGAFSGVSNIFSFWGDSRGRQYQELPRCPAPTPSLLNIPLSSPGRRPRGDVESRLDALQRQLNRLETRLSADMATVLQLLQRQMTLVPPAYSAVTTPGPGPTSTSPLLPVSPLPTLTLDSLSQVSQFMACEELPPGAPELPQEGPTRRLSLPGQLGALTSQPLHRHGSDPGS

## 5-chloro-benzofuran-2- carboxylic acid 2,4- dimethoxy- benzylamide [Compound 2]
[1]
  dFRP Guinea Pig: 0 ms
Isolated rat left atria
  dFRP Rat: 17 ms
hERG potassium channel
  IC50: 16.7 µM
  Ratio hERG/Kv4.3: 9.6
[2]; 15 μmol/kg i.p., highest dose tested, Bazett, n=5
  maximum prolongation of QTc: 33 ms
[2]; 15 μmol/kg i.p., highest dose tested, n=5
  maximum prolongation of QT: 12 ms
[2]; 3-15 μmol/kg i.p.
  Heart rate (result in words): minor and not significant decrease
  Locomotor activity (result in words): reproducible rise after each of the subsequent injections
  PQ and QRS (result in words): did not show dose-dependent changes
